Columns and labels:
immature rat uterus = assay: Immature Uterine Wet Weight Assay, agonist mode (Example 906); assay type: in vivo; conditions: dosed PO, QDx3, uterine wet weight:body weight ratio, endometrial height
Description: All of the exemplary Formula I compounds in Tables 1 and 2 were made and characterized by LCMS [M+H]^+ (liquid chromatography mass spectroscopy) with detection of parent ion. […] ER-alpha MCF7 HCS Sinf (%) values in Table 1 were measured by the Breast Cancer Cell ERa High Content Fluorescence Imaging Degradation Assay of Example 901. […] RTP, 25 (3):226-31). […] Where more than one name is associated with a Formula I compound or intermediate, the chemical structure shall define the compound. Female immature CD-IGS rats (21 days old upon arrival) are treated for three days. Animals are dosed daily for three days. […] For Agonist Mode, Vehicle or test compound is administered orally by gavage. On the fourth day 24 hours after dose, plasma is collected for pharmacokinetic analysis. Immediately following plasma collection, the animals are euthanized and the uterus removed and weighed. […] Stained tissues are analyzed and read by a board certified pathologist. Uteri and ovaries from 4 animals per group are flash frozen in liquid N2 for transcriptional analysis, examining a select set of genes modulated by the estrogen receptor. […] U.S. Pat. […] Vehicle and Vehicle plus ethynyl estradiol (EE). All compounds were dosed PO, QDx3. Uterine Wet Weight (UWW): Body Weight ratios were calculated. The mean Endometrial Height of Uterine cross sections were measured by histology. Endometrial cell height was measured from the basement membrane to the apical (luminal) surface using a slide viewer at 20× magnification. Obliquely cut areas were avoided.

[1] = molecular target: estrogen receptor alpha (ESR1) in MCF7 breast cancer cells (Homo sapiens (Human), UniProt P03372); assay: Breast Cancer Cell ERa High Content Fluorescence Imaging Degradation Assay (Example 901); assay type: cell-based; conditions: 4 hours, plateau of maximal effect, 0% = DMSO, 100% change = 5 nM Fulvestrant
Description: Where more than one name is associated with a Formula I compound or intermediate, the chemical structure shall define the compound. […] Cell plates were incubated at 37° C., for 4 hours. Fixation and permeabilization were carried out using a Biotek EL406 plate washer and dispenser as follows. […] Well contents were aspirated and washed 3 times with 100 μL/well of PBS. […] Samples were incubated for 2 hours at room temperature. […] Samples were incubated for 2 hours at room temperature. […] Quantitative fluorescence imaging of ESR1 was carried out using a Cellomics Arrayscan V (Thermo). […] Channel 1 (DNA stain) was used to define the nuclear region (Circ). […] The “Robust Fit” method was used to define the inflexion point of curve (EC50) and the plateau of the maximal effect (Sinf).

ER-alpha MCF7 = ER-alpha MCF7 HCS EC50; stated as measured by in vitro cell proliferation assays of Examples 902 and 903; assay type: cell-based; conditions: Homo sapiens, Table 1
Procedure, shortened: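 MCF7 cells seeded 1000-2000 cells/well for 16 h, then treated with nine-point 1:2 DMSO dilution series in quadruplicate at 37 °C, 5% CO2 for 4 days. Viable cells quantified by CellTiter-Glo ATP luminescence; EC50 calculated. Controls: fulvestrant at final 100 nM, DMSO 0.2% v/v.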

Sequence of estrogen receptor alpha (ESR1) in MCF7 breast cancer cells (P03372 whole entry): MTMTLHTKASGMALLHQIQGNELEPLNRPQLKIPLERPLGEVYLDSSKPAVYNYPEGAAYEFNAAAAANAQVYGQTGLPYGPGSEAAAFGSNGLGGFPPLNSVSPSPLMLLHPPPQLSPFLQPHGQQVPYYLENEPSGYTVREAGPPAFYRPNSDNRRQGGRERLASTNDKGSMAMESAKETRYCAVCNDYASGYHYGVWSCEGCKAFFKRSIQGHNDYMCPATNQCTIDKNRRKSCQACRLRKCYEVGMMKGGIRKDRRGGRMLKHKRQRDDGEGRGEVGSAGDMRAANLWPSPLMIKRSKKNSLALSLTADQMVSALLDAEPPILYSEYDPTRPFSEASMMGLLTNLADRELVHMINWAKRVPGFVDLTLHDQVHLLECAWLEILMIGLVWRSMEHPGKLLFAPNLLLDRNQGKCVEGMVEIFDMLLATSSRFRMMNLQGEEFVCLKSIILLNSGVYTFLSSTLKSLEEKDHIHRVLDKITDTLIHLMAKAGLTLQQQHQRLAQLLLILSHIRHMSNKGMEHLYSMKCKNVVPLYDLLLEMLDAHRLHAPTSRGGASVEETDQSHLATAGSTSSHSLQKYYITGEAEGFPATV

| SMILES | agonist mode UWW assay: antagonist / partial agonist (immature rat uterus) | ER-alpha MCF7 HCS Sinf (%) [1] [%] | EC50 (ER-alpha MCF7; MCF7 cells) [nM] | EC50 (ER-alpha MCF7; MCF7, MCF7 cells) [nM] |
| --- | --- | --- | --- | --- |
| C[C@@H]1Cc2c([nH]c3ccccc23)[C@@H](c2c(F)cc(/C=C/C(=O)O)cc2F)N1CC(C)(C)F [AZD9496, reference compound] | partial agonist | – | – | – |
| C[C@@H]1Cc2c([nH]c3ccccc23)[C@@H](c2c(F)cc(OC3CN(CCCF)C3)cc2F)N1CC(C)(C)F [Example 101, (1R,3R)-1-(2,6-difluoro-4-((1-(3-fluoropropyl)azetidin-3-yl)oxy)phenyl)-2-(2-fluoro-2-methylpropyl)-3-methyl-2,3,4,9-tetrahydro-1H-pyrido[3,4-b]indole] | antagonists | −100 | – | – |
| C[C@@H]1Cc2c([nH]c3ccccc23)[C@@H](c2c(F)cc(OCCN3CC(CF)C3)cc2F)N1CC(C)(C)F [Example 102, (1R,3R)-1-(2,6-difluoro-4-(2-(3-(fluoromethyl)azetidin-1-yl)ethoxy)phenyl)-2-(2-fluoro-2-methylpropyl)-3-methyl-2,3,4,9-tetrahydro-1H-pyrido[3,4-b]indole] | antagonists | −98.9 | – | – |
| CC(C)C(=O)N1[C@H](c2c(F)cc(OCCN3CC(CF)C3)cc2F)c2[nH]c3ccccc3c2C[C@H]1C [Example 103, 1-((1R,3R)-1-(2,6-difluoro-4-(2-(3-(fluoromethyl)azetidin-1-yl)ethoxy)phenyl)-3-methyl-3,4-dihydro-1H-pyrido[3,4-b]indol-2(9H)-yl)-2-methylpropan-1-one] | – | −91.8 | 0.11 | – |
| C[C@@H]1Cc2c([nH]c3ccccc23)[C@@H](c2c(F)cc(OCCN3CC(CF)C3)cc2F)N1CC1CCC1 [Example 113, (1R,3R)-2-(cyclobutylmethyl)-1-(2,6-difluoro-4-(2-(3-(fluoromethyl)azetidin-1-yl)ethoxy)phenyl)-3-methyl-2,3,4,9-tetrahydro-1H-pyrido[3,4-b]indole] | – | −94.8 | – | 6.18 |
| C[C@@H]1Cc2c([nH]c3ccccc23)[C@@H](c2c(F)cc(OCCN3CC(CF)C3)cc2F)N1CC1COC1 [Example 115, (1R,3R)-1-(2,6-difluoro-4-(2-(3-(fluoromethyl)azetidin-1-yl)ethoxy)phenyl)-3-methyl-2-(oxetan-3-ylmethyl)-2,3,4,9-tetrahydro-1H-pyrido[3,4-b]indole] | – | −95.5 | – | 23.1 |
| C[C@@H]1Cc2c([nH]c3ccccc23)[C@@H](c2c(F)cc(OCCN3CC(CF)C3)cc2F)N1C1COC1 [Example 116, (1R,3R)-1-(2,6-difluoro-4-(2-(3-(fluoromethyl)azetidin-1-yl)ethoxy)phenyl)-3-methyl-2-(oxetan-3-yl)-2,3,4,9-tetrahydro-1H-pyrido[3,4-b]indole] | – | −85 | – | 41.4 |
| C[C@@H]1Cc2c([nH]c3ccccc23)[C@@H](c2c(F)cc(OCCN3CC(CO)C3)cc2F)N1CC(C)(C)F [Example 119, (1-(2-(3,5-difluoro-4-((1R,3R)-2-(2-fluoro-2-methylpropyl)-3-methyl-2,3,4,9-tetrahydro-1H-pyrido[3,4-b]indol-1-yl)phenoxy)ethyl)azetidin-3-yl)methanol] | – | −71.3 | – | – |
| C[C@@H]1Cc2c([nH]c3ccccc23)[C@@H](c2ccc(OCCN3CC(CF)C3)cc2F)N1CC(C)(C)F [Example 120, (1R,3R)-2-(2-fluoro-2-methylpropyl)-1-(2-fluoro-4-(2-(3-(fluoromethyl)azetidin-1-yl)ethoxy)phenyl)-3-methyl-2,3,4,9-tetrahydro-1H-pyrido[3,4-b]indole] | – | −96.3 | – | 0.0562 |
| CC(=O)N1[C@H](c2c(F)cc(OCCN3CC(CF)C3)cc2F)c2[nH]c3ccccc3c2C[C@H]1C [Example 121, 1-((1R,3R)-1-(2,6-difluoro-4-(2-(3-(fluoromethyl)azetidin-1-yl)ethoxy)phenyl)-3-methyl-3,4-dihydro-1H-pyrido[3,4-b]indol-2(9H)-yl)ethanone] | – | −91 | – | – |
| C[C@@H]1Cc2c([nH]c3ccccc23)[C@@H](c2c(F)cc(OCCN3CC(CF)C3)cc2F)N1C(=O)C(C)(C)O [Example 122, 1-((1R,3R)-1-(2,6-difluoro-4-(2-(3-(fluoromethyl)azetidin-1-yl)ethoxy)phenyl)-3-methyl-3,4-dihydro-1H-pyrido[3,4-b]indol-2(9H)-yl)-2-hydroxy-2-methylpropan-1-one] | – | −97.8 | – | 1.4 |
| C[C@@H](CO)CN1[C@H](c2c(F)cc(OCCN3CC(CF)C3)cc2F)c2[nH]c3ccccc3c2C[C@H]1C [Example 123, (R)-3-((1R,3R)-1-(2,6-difluoro-4-(2-(3-(fluoromethyl)azetidin-1-yl)ethoxy)phenyl)-3-methyl-3,4-dihydro-1H-pyrido[3,4-b]indol-2(9H)-yl)-2-methylpropan-1-ol] | – | −96.1 | – | 1.04 |
| C[C@@H]1Cc2c([nH]c3ccccc23)[C@@H](c2c(F)cc(OCCN3CC(CF)C3)cc2F)N1C(=O)C1CC(O)C1 (stereo partly drawn) [Example 124, ((1R,3R)-1-(2,6-difluoro-4-(2-(3-(fluoromethyl)azetidin-1-yl)ethoxy)phenyl)-3-methyl-3,4-dihydro-1H-pyrido[3,4-b]indol-2(9H)-yl)((1s,3S)-3-hydroxycyclobutyl) methanone] | – | −75 | – | 135 |
| CC(C)C(=O)N1C(c2c(F)cc(OCCN3CC(CF)C3)cc2F)c2[nH]c3ccccc3c2CC1(C)C (centres unmarked) [Example 125, 1-(1-(2,6-difluoro-4-(2-(3-(fluoromethyl)azetidin-1-yl)ethoxy)phenyl)-3,3-dimethyl-3,4-dihydro-1H-pyrido[3,4-b]indol-2(9H)-yl)-2-methylpropan-1-one] | – | −90 | – | 74.4 |
| C[C@@H]1Cc2c([nH]c3ccccc23)[C@@H](c2c(F)cc(OCCN3CC(CF)C3)cc2F)N1S(C)(=O)=O [Example 126, (1R,3R)-1-(2,6-difluoro-4-(2-(3-(fluoromethyl)azetidin-1-yl)ethoxy)phenyl)-3-methyl-2-(methylsulfonyl)-2,3,4,9-tetrahydro-1H-pyrido[3,4-b]indole] | – | −94.4 | – | – |

From patent US20250114338A1, “TETRAHYDRO-PYRIDO[3,4-b]INDOLE ESTROGEN RECEPTOR MODULATORS AND USES THEREOF” (Genentech, Inc., priority 2014, published 2025)
